Measurements reported in paper PMC12728192, “The dynamic lateral gate of the mitochondrial β-barrel biogenesis machinery is blocked by darobactin A” (Nature Communications, 2025).

Target: T1, T. thermophilus SAM complex (TtSAM; Sam50:Sam35:Sam37) (Thermothelomyces thermophilus, UniProt G2QFF9)
T1 construct: gene MYCTH_2094326; codon-optimized, co-expressed in S. cerevisiae W303.1B; Strep-Tactin purified monomeric 1:1:1 complex in LMNG/GDN or GDN; 10xHis or TwinStrep tags with linkers and TEV sites in some constructs; with Sorting and assembly machinery subunit Sam35; Sorting and assembly machinery subunit Sam37
T1 sequence (G2QFF9 entry or part of it): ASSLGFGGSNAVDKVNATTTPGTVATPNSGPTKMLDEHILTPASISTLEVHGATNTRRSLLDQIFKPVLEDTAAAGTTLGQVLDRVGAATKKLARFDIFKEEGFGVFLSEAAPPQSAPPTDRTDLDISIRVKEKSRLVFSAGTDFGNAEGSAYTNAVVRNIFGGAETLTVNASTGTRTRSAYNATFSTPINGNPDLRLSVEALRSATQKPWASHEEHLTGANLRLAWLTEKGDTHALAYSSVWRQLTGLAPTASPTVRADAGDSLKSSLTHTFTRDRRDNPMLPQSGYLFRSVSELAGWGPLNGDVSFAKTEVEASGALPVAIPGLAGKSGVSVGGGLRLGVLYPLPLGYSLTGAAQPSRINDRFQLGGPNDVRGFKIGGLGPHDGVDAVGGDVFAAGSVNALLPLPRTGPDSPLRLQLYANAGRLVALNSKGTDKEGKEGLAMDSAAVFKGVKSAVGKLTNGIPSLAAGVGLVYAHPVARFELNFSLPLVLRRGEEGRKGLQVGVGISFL
T1 sequence (G2Q6R7 entry or part of it, further chain): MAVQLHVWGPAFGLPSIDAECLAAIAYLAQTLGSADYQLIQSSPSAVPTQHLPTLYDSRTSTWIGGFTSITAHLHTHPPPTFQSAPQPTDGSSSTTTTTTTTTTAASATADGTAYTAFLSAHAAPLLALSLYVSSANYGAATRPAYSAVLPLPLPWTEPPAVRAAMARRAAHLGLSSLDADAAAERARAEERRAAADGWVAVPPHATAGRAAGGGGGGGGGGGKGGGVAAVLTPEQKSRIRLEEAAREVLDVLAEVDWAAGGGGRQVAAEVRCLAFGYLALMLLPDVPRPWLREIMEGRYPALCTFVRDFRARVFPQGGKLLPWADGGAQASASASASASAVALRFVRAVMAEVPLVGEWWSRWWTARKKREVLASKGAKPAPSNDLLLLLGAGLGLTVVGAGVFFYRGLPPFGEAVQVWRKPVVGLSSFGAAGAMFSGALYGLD
T1 sequence (G2QAT9 entry or part of it, further chain): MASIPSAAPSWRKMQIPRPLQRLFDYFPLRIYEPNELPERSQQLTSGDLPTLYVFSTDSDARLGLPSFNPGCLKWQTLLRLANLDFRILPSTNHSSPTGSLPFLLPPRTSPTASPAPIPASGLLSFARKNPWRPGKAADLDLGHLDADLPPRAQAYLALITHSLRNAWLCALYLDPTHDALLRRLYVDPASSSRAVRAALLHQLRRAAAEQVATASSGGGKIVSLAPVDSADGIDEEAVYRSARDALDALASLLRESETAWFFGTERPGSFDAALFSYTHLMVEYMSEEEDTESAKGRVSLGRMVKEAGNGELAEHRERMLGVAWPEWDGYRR
Assay: cryo-EM structure; LC/MS of purified complex
Format: binding
Conditions: co-purified from yeast membranes; modelled on back side of Sam50 barrel and beneath Sam37 cytosolic domain

CC(C)[C@@H](C)/C=C/[C@@H](C)[C@H]1CC[C@H]2C3=CC=C4C[C@@H](O)CC[C@]4(C)[C@H]3CC[C@]12C [ergosterol]
cryo-EM structure; LC/MS of purified complex: We have modeled these lipids as ergosterol molecules
